Test results as given in patent publication US12145927B2 (BRISTOL-MYERS SQUIBB COMPANY, priority 2018, dated 2024).

molecular target: T1, human IDO1 (Homo sapiens, UniProt P14902); assay: IDO inhibition assay in human IDO1/HEK293 cells (IDO1 HEK Human); format: cell-based; conditions: HEK293 cells stably expressing human IDO1; 20 hours incubation; absorbance at 490 nm after Ehrlich reagent
T1 construct: expressed in transfected cells
How it was run: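 HEK293 clones stably expressing human IDO1 (10,000 cells/well, phenol red-free RPMI, 10% FBS) were treated with compound for 20 hours at 37° C. After 0.2% TCA and 30 min at 50° C., kynurenine was read with Ehrlich reagent at 490 nm. IC50 was normalised to DMSO (0%) and 500 nM reference standard (100%).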

T1 sequence (P14902 whole entry): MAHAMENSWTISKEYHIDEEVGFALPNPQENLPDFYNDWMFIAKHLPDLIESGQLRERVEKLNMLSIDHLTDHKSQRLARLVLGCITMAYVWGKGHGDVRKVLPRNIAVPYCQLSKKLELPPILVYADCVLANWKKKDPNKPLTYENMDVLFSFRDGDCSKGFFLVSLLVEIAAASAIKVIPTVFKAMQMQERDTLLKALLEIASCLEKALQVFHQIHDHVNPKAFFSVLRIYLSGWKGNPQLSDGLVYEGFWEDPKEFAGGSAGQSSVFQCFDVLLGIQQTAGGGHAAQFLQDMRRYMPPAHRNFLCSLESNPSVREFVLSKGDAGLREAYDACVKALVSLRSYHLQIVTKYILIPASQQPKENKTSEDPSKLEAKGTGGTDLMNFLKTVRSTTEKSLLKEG

Row | IC50 | Structure (SMILES)
1 | 189 nM | Fc1ccc2nc(Nc3cc(-c4ccccc4-c4nnn[nH]4)cc4c3OCCCC4c3ccccc3)sc2c1 (single isomer, unassigned) [57 (En. 2), N-(7-(2-(1H-tetrazol-5-yl)phenyl)-5-phenyl-2,3,4,5-tetrahydrobenzo[b]oxepin-9-yl)-6-fluorobenzo[d]thiazol-2-amine]
2 | 7.6 nM | Cc1ccc(NC(=O)Nc2cc(-c3ccccc3-c3nnn[nH]3)cc3c2OCCCC3C2CC2)cc1 (racemic) [Example 36, 1-(7-(2-(1H-tetrazol-5-yl)phenyl)-5-cyclopropyl-2,3,4,5-tetrahydrobenzo[b]oxepin-9-yl)-3-(p-tolyl)urea]
3 | 579 nM | Cc1ccc(NC(=O)Nc2cc(-c3ccccc3-c3nnn[nH]3)cc3c2OCC(O)C(O)C3c2ccccc2)cc1 (single isomer, unassigned) [9 (En. 2), 1-(7-(2-(1H-tetrazol-5-yl)phenyl)-3,4-dihydroxy-5-phenyl-2,3,4,5-tetrahydrobenzo[b]oxepin-9-yl)-3-(p-tolyl)urea]
4 | 8.5 nM | Cc1ccc(-c2nnn[nH]2)c(-c2cc(Nc3ccc(Cl)cc3)c3c(c2)C(c2ccccc2)CCCO3)c1 (single isomer, unassigned) [Example 78, N-(4-chlorophenyl)-7-(5-methyl-2-(1H-tetrazol-5-yl)phenyl)-5-phenyl-2,3,4,5-tetrahydrobenzo[b]oxepin-9-amine]
5 | 1400 nM | Cc1ccc(NC(=O)Nc2cc(C(C)CC(=O)O)cc3c2O[C@H](C2CC2)[C@H]3c2ccccc2)cc1 (mixture of isomers) [Example 111, rac-3-((2R,3S)-2-cyclopropyl-3-phenyl-7-(3-(p-tolyl)ureido)-2,3-dihydrobenzofuran-5-yl)butanoic acid]
6 | 25.2 nM | O=C(Nc1ccc(Cl)cc1F)Nc1cc(-c2ccccc2-c2nnn[nH]2)cc2c1OCCCC2C1CC1 (single isomer, unassigned) [41 (En. 1), 1-(7-(2-(1H-tetrazol-5-yl)phenyl)-5-cyclopropyl-2,3,4,5-tetrahydrobenzo[b]oxepin-9-yl)-3-(4-chloro-2-fluorophenyl)urea]
7 | 77.6 nM | Cc1cnc(Nc2cc(-c3ccccc3-c3nnn[nH]3)cc3c2OCCCC3c2ccccc2)nc1 (single isomer, unassigned) [55 (En. 2), N-(7-(2-(1H-tetrazol-5-yl)phenyl)-5-phenyl-2,3,4,5-tetrahydrobenzo[b]oxepin-9-yl)-5-methylpyrimidin-2-amine]
8 | 2.6 nM | Fc1cccc2oc(Nc3cc(-c4ccccc4-c4nnn[nH]4)cc4c3OCCCC4C3CC3)nc12 (stereo not shown) [Example 28, N-(7-(2-(1H-tetrazol-5-yl)phenyl)-5-cyclopropyl-2,3,4,5-tetrahydrobenzo[b]oxepin-9-yl)-4-fluorobenzo[d]oxazol-2-amine]
9 | 1.7 nM | Cc1ccc(NC(=O)Nc2cc(-c3ccccc3-c3nnn[nH]3)cc3c2OCCC(C)C3c2ccccc2)cc1 (single isomer, unassigned) [Example 44, 1-(7-(2-(1H-tetrazol-5-yl)phenyl)-4-methyl-5-phenyl-2,3,4,5-tetrahydrobenzo[b]oxepin-9-yl)-3-(p-tolyl)urea]
10 | 70 nM | O=C(Nc1ccc(C2CC2)cc1F)Nc1cc(-c2ccccc2-c2nnn[nH]2)cc2c1OCCCC2c1ccccc1 (stereo not shown) [Example 6, 1-(7-(2-(1H-tetrazol-5-yl)phenyl)-5-phenyl-2,3,4,5-tetrahydrobenzo[b]oxepin-9-yl)-3-(4-cyclopropyl-2-fluorophenyl)urea]
11 | 17 nM | c1ccc(C2CCCOc3c(Nc4nc5ccccc5s4)cc(-c4ccccc4-c4nnn[nH]4)cc32)cc1 (single isomer, unassigned) [64 (En. 2), N-(7-(2-(1H-tetrazol-5-yl)phenyl)-5-phenyl-2,3,4,5-tetrahydrobenzo[b]oxepin-9-yl) benzo[d]thiazol-2-amine]
12 | 13 nM | C=C[C@@H]1Oc2c(NC(=O)Nc3ccc(C)cc3)cc(-c3ccccc3-c3nnn[nH]3)cc2[C@H]1c1ccccc1 (single isomer, unassigned) [Example 89, 1-((trans)-5-(2-(1H-tetrazol-5-yl)phenyl)-3-phenyl-2-vinyl-2,3-dihydrobenzofuran-7-yl)-3-(p-tolyl)urea]
13 | 3.8 nM | CC1CCOc2c(Nc3nc4ccccc4o3)cc(-c3ccccc3-c3nnn[nH]3)cc2C1c1ccccc1 (single isomer, unassigned) [Example 51, N-(7-(2-(1H-tetrazol-5-yl)phenyl)-4-methyl-5-phenyl-2,3,4,5-tetrahydrobenzo[b]oxepin-9-yl)benzo[d]oxazol-2-amine]
14 | 77 nM | Cc1ccc(NC(=O)Nc2cc(-c3ccccc3-c3nnn[nH]3)cc3c2O[C@@H](C)[C@H]3c2ccccc2)cc1 (relative stereo) [Example 113, rel-1-((2R,3R)-5-(2-(2H-tetrazol-5-yl)phenyl)-2-methyl-3-phenyl-2,3-dihydrobenzofuran-7-yl)-3-(p-tolyl)urea]
15 | 460 nM | Cc1ccc(NC(=O)Nc2cc(-c3ccccc3-c3nnn[nH]3)cc3c2OC(C)(C)C3)cc1 [Example 120, 1-(5-(2-(1H-Tetrazol-5-yl)phenyl)-2,2-dimethyl-2,3-dihydrobenzofuran-7-yl)-3-(p-tolyl)urea]
16 | 87 nM | C=CC1Oc2c(NC(=O)Nc3ccc(C)cc3)cc(-c3cc(F)ccc3C(=O)O)cc2C1c1ccccc1 (racemic) [Example 98]

Row | IC50 | Structure (SMILES)
17 | 2290 nM | Cc1ccc(NC(=O)Nc2cc(-c3ccccc3S(=O)(=O)NC(=O)c3ccccc3)cc3c2OCCCC3c2ccccc2)cc1 (single isomer, unassigned) [Example 61, N-((2-(5-phenyl-9-(3-(p-tolyl)ureido)-2,3,4,5-tetrahydrobenzo[b]oxepin-7-yl)phenyl)sulfonyl)benzamide]
18 | 12 nM | C=C[C@@H]1Oc2c(NC(=O)Nc3ccc(C)cc3)cc(-c3ccccc3-c3nn[nH]n3)cc2[C@@H]1c1ccccc1 (racemic) [Example 86, (+/−)-1-((cis)-5-(2-(1H-tetrazol-5-yl)phenyl)-3-phenyl-2-vinyl-2,3-dihydrobenzofuran-7-yl)-3-(p-tolyl)urea]
19 | 21 nM | C=C[C@H]1Oc2c(NC(=O)Nc3ccc(C)cc3)cc(-c3ccccc3-c3nnn[nH]3)cc2[C@@H]1CCC(F)(F)F (single isomer, unassigned) [Example 100, 1-((trans)-5-(2-(1H-tetrazol-5-yl)phenyl)-3-(3,3,3-trifluoropropyl)-2-vinyl-2,3-dihydrobenzofuran-7-yl)-3-(p-tolyl)urea]
20 | 432 nM | FC(F)(F)c1cnc(Nc2cc(-c3ccccc3-c3nnn[nH]3)cc3c2OCCCC3c2ccccc2)nc1 (stereo not shown) [Example 54, N-(7-(2-(1H-tetrazol-5-yl)phenyl)-5-phenyl-2,3,4,5-tetrahydrobenzo[b]oxepin-9-yl)-5-(trifluoromethyl)pyrimidin-2-amine]
21 | > 6000 nM | Cc1ccc(CC(=O)Nc2cc(-c3ccccc3-c3nnn[nH]3)cc3c2OCCCC3C2CC2)c(F)c1 (single isomer, unassigned) [39 (En. 1)]
22 | 219 nM | O=C(Cc1ccccc1F)Nc1cc(-c2ccccc2-c2nnn[nH]2)cc2c1OCCCC2C1CC1 (single isomer, unassigned) [40 (En. 1), N-(7-(2-(1H-tetrazol-5-yl)phenyl)-5-cyclopropyl-2,3,4,5-tetrahydrobenzo[b]oxepin-9-yl)-2-(2-fluorophenyl)acetamide]
23 | 14.6 nM | Cc1ccc(NC(=O)Nc2cc(-c3ccccc3-c3nnn[nH]3)cc3c2OCCC(C)C3C)cc1 (mixture of isomers) [Example 69, 1-(7-(2-(1H-tetrazol-5-yl)phenyl)-4,5-dimethyl-2,3,4,5-tetrahydrobenzo[b]oxepin-9-yl)-3-(p-tolyl)urea]
24 | 70.8 nM | Cc1ccc(NC(=O)Nc2cc(-c3ccccc3-c3nnn[nH]3)cc3c2OCCCC3C)cc1 (stereo not shown) [Example 31, 1-(7-(2-(1H-tetrazol-5-yl)phenyl)-5-methyl-2,3,4,5-tetrahydrobenzo[b]oxepin-9-yl)-3-(p-tolyl)urea]
25 | 223 nM | O=C(Nc1ccccc1F)Nc1cc(-c2ccccc2-c2nnn[nH]2)cc2c1OCCCC2C1CC1 (single isomer, unassigned) [38 (En. 1), 1-(7-(2-(1H-tetrazol-5-yl)phenyl)-5-cyclopropyl-2,3,4,5-tetrahydrobenzo[b]oxepin-9-yl)-3-(2-fluorophenyl)urea]
26 | 11 nM | Cc1ccc(NC(=O)Nc2cc(-c3ccccc3-c3nnn[nH]3)cc3c2OC(C(C)C)C3c2ccccc2)cc1 (racemic) [Example 103]
27 | 89 nM | C=C[C@H]1Oc2c(NC(=O)Cc3ccc(C)cc3)cc(-c3ccccc3-c3nnn[nH]3)cc2[C@@H]1c1ccccc1 (racemic) [Example 91, (+/−)-N-((trans)-5-(2-(1H-tetrazol-5-yl)phenyl)-3-phenyl-2-vinyl-2,3-dihydrobenzofuran-7-yl)-2-(p-tolyl)acetamide]
28 | 71.4 nM | Cc1ccc(CC(=O)Nc2cc(-c3ccccc3-c3nnn[nH]3)cc3c2OCCCC3C(C)C)cc1 (single isomer, unassigned) [25 (En. 2), N-(7-(2-(1H-tetrazol-5-yl)phenyl)-5-isopropyl-2,3,4,5-tetrahydrobenzo[b]oxepin-9-yl)-2-(p-tolyl)acetamide]
29 | 23 nM | Cc1ccc(NC(=O)Nc2cc(-c3ccccc3-c3nnn[nH]3)cc3c2O[C@@H](C)[C@@H]3CCC(F)(F)F)cc1 (relative stereo) [Example 118, rel-1-((2R,3S)-5-(2-(2H-tetrazol-5-yl)phenyl)-2-methyl-3-(3,3,3-trifluoropropyl)-2,3-dihydrobenzofuran-7-yl)-3-(p-tolyl)urea]
30 | 1.2 nM | Cc1ccc(NC(=O)Nc2cc(-c3ccccc3-c3nc(=O)o[nH]3)cc3c2OCCCC3C2CC2)cc1 (single isomer, unassigned) [Example 33-1, 1-(5-cyclopropyl-7-(2-(5-oxo-2,5-dihydro-1,2,4-oxadiazol-3-yl)phenyl)-2,3,4,5-tetrahydrobenzo[b]oxepin-9-yl)-3-(p-tolyl)urea]
31 | 4.1 nM | CCC(C)C1CCCOc2c(NC(=O)Cc3ccc(C)cc3)cc(-c3ccccc3-c3nnn[nH]3)cc21 (single isomer, unassigned) [30 (En. 1), N-(7-(2-(1H-tetrazol-5-yl)phenyl)-5-(sec-butyl)-2,3,4,5-tetrahydrobenzo[b]oxepin-9-yl)-2-(p-tolyl)acetamide]
